{
  "source": "patent US10500249B2",
  "about": "“Compositions and methods for preventing or treating diseases, conditions, or processes characterized by aberrant fibroblast proliferation and extracellular matrix deposition” (MOERAE MATRIX, INC., priority 2014, dated 2019)",
  "key": {"[1]": {"test_system": "bleomycin-induced lung fibrosis", "assay": "Bleomycin mouse model of pulmonary fibrosis (treatment model)", "assay_type": "in vivo, C57BL/6 mice", "conditions": "for collagen deposition (hydroxyproline assay, whole left lung): day 28 post bleomycin; for lung scarring, histology (H&E and Masson's blue trichrome): daily day 14 to 28 post bleomycin", "method": "(§1) A mouse model of pulmonary fibrosis was generated by administering 0.025 U of bleomycin/PBS intratracheally to C57BL/6 mice. […] At 21 day post bleomycin delivery (for prevention model) or 28 post bleomycin delivery (for treatment model), groups of mice were sacrificed with a sodium pentobarbital injection (120 mg/kg) and the chest cavity was opened. The right mainstem bronchus was ligated and the right lung was removed. The trachea was cannulated and the left lung was perfused with 4% formaldehyde at 21 cm H2O pressure. The tissue blocks then were embedded in paraffin, and […] sections were prepared for staining. Sections from each animal were stained with hematoxylin and eosin (H&E) to visualize cells or with Masson's Trichrome staining to highlight collagen deposition. […] Stained sections were mounted onto a labeled glass slide with organic mounting medium.\nThe classic bleomycin model, as depicted in FIG. 10, has been used widely in the literature in the pre-fibrotic stage to test efficacy of any intervention.\nMore specifically, fibrotic loci in the lungs were induced by delivering intratracheally about 0.025 U of bleomycin (dissolved in PBS) to C57BL/6 mice. […] Mice were sacrificed with a sodium pentobarbital injection (120 mg/kg) and the chest cavity was opened. The right mainstem bronchus was ligated and the right lung is removed. The trachea was cannulated and the left lung was perfused with 4% formaldehyde at 21 cm H2O pressure. The tissue blocks then were embedded in paraffin, and […] sections were prepared, and stained with hematoxylin and eosin (H&E; for pathological examination) or Masson's Trichrome (for collagen staining)\nNext, collagen deposition was determined quantitatively by using the standard hydroxyproline assay with whole left lung. Total collagen (soluble and insoluble) deposition was assessed by analyzing hydroxyproline concentrations in murine lungs day 28 post bleomycin injury."}, "IL-6": {"test_system": "IL-6", "assay": "Plasma cytokine level, bleomycin treatment model", "assay_type": "in vivo, mouse", "conditions": "24 hours after final administration"}, "[2]": {"test_system": "human fetal lung fibroblasts (IMR-90), α-SMA", "assay": "TGF-β-induced myofibroblast activation, α-SMA immunoblot", "assay_type": "cell-based", "conditions": "1 h pre-treatment, then TGF-β1 (2 ng/ml) 48 h", "text": "Cell lysates were immunoblotted against antibodies for α-SMA (a marker for myofibroblast activation) and GAPDH (loading control)."}, "SGK (h)": {"test_system": "SGK (h)", "assay": "Kinase Profiling Assay", "assay_type": "biochemical, human", "conditions": "100 μM", "method": "(§2) Every kinase activity measurement was conducted in duplicate.\n(§3) Specifically, in these assays, a positively charged substrate is phosphorylated with a radiolabeled phosphate group from an ATP if the kinase is not inhibited by an inhibitor peptide. The positively charged substrate then is attracted to a negatively charged filter membrane, quantified with a scintillation counter, and compared to a 100% activity control.\n(§4) In addition to determining the IC50 of the compound, the specificity of MK2 inhibitory peptides was assessed by examining activities of all 266 human kinases available for testing in the Millipore kinase profiling service (Table 1)."}, "MLCK (h)": {"test_system": "MLCK (h)", "assay": "Kinase Profiling Assay", "assay_type": "biochemical, human", "conditions": "100 μM", "method": "as §2, §3, §4"}, "[3]": {"test_system": "human fetal lung fibroblasts (IMR-90), fibronectin", "assay": "TGF-β-mediated fibronectin expression", "assay_type": "cell-based", "conditions": "1 h pre-treatment, then TGF-β1 (2 ng/ml) 72 h", "method": "Fibronection was measured as secreted fragments in the conditioned media. Equal amounts (14 μg) of total proteins from the conditioned media were loaded in each lane."}, "[4]": {"test_system": "phospho-Thr^334-MAPKAPK2 (activated MK2)", "assay": "Activated MK2 immunostaining of lung sections, bleomycin treatment model", "assay_type": "in vivo, C57-BL/6 mice", "conditions": "day 14 to 28", "text": "(§5) Briefly, C57-BL/6 mice were subjected to bleomycin injury at day 0. […] Formalin-fixed lung tissue sections were immunostained against phospho-Thr^334 MK2. Control staining was with biotinylated secondary IgG antibody. Streptavidin-conjugated horseradish peroxidase was used with 3,3′-diaminobenzidene as substrate and nuclei was counterstained with hematoxylin."}, "splenic T cells": {"test_system": "splenic T cells", "assay": "Autologous mixed lymphocyte reaction, splenic T cells of bleomycin mice", "assay_type": "in vivo, C57-BL/6 mice", "text": "Recent studies highlighted a key role for T lymphocytes in bleomycin-induced fibrosis (Wilson, M. et al., The Journal of Experimental Medicine, 207(3): 535-552, 2010). […] Specifically, the ability of C57BL/6 purified antigen-presenting cells to induce proliferation in C57BL/6 T lymphocytes was examined in the assay.\nC57-BL/6 mice were subjected to bleomycin injury at day 0. […] Splenic T cells were isolated and cultured alone or in the presence of autologous antigen presenting cells (APCs from C57-BL/6 mice) or stimulated with antibodies against CD3 (α-CD3) for 48 h. The cells then were radiolabeled with […] thymidine for 16 h and assessed for proliferation rates."}, "[5]": {"test_system": "alpha-smooth muscle actin (α-SMA)", "assay": "α-SMA immunostaining of lung sections, bleomycin treatment model", "assay_type": "in vivo, C57-BL/6 mice", "conditions": "day 14 through 28", "text": "as §5, with “C57-BL/6” for “Briefly, C57-BL/6”, “α-SMA.” for “phospho-Thr^334 MK2.”, “hematoxylin. Original magnifications: 20×” for “hematoxylin.”"}, "TNF-α": {"test_system": "TNF-α", "assay": "Plasma cytokine level, bleomycin treatment model", "assay_type": "in vivo, mouse", "conditions": "24 hours after final administration"}, "[6]": {"test_system": "bleomycin-induced lung fibrosis", "assay": "Bleomycin mouse model of pulmonary fibrosis (prevention model)", "assay_type": "in vivo, C57BL/6 mice", "conditions": "for collagen accumulation (Masson's Trichrome staining) / fibrotic loci formation / lung fibrosis (H&E staining): daily day 7 to 21 post bleomycin", "method": "as §1\nBriefly, fibrotic loci in the lungs of the mice were induced by delivering intratracheally about 0.025 U of bleomycin (dissolved in PBS) to C57BL/6 mice. […] Briefly, mice were sacrificed with a sodium pentobarbital injection (120 mg/kg) and the chest cavity was opened. The right mainstem bronchus was ligated and the right lung was removed. The trachea was cannulated and the left lung was perfused with 4% formaldehyde at 21 cm H2O pressure. The tissue blocks then were embedded in paraffin, and […] sections were prepared, and stained with hematoxylin and eosin (H&E; for pathological examination) or Masson's Trichrome (for collagen staining)\nNext, total collagen levels in the lungs of the bleomycin-injured mice (FIG. 12) were analyzed quantitatively by computing a constant conversion factor (7.5) for collagen from hydroxyproline concentrations (Neuman R. and Logan M, J Biol Chem., 186(2):549-56, 1950, incorporated by reference).\nNext, the effect of increasing doses of MK2 peptide inhibitors on collagen deposition was examined in vivo using the bleomycin mouse model of idiopathic pulmonary fibrosis (prevention model). Briefly, C57-BL/6 mice were subjected to bleomycin injury at day 0."}, "MAPKAP-K2 (h)": {"biological_target": "MAPKAP-K2 (h) (Homo sapiens, UniProt P49137)", "sequence (P49137 whole entry)": "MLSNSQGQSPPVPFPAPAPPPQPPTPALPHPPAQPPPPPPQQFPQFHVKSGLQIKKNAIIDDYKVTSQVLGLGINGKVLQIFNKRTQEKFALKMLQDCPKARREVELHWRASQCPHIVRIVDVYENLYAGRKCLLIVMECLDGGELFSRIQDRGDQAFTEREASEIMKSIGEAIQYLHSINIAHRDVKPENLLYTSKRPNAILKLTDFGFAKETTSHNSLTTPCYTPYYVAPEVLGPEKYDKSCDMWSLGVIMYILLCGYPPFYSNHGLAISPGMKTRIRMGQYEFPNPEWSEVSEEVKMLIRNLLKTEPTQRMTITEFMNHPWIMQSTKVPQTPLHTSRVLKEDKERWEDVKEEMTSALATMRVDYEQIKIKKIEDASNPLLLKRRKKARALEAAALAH", "assay": "Kinase Profiling Assay", "assay_type": "biochemical", "conditions": "read-out: inhibition of kinase activity of MK2", "method": "as §2, §3, §4"}, "TrkB (h)": {"biological_target": "TrkB (h) (Homo sapiens, UniProt Q16620)", "sequence (Q16620 32-822)": "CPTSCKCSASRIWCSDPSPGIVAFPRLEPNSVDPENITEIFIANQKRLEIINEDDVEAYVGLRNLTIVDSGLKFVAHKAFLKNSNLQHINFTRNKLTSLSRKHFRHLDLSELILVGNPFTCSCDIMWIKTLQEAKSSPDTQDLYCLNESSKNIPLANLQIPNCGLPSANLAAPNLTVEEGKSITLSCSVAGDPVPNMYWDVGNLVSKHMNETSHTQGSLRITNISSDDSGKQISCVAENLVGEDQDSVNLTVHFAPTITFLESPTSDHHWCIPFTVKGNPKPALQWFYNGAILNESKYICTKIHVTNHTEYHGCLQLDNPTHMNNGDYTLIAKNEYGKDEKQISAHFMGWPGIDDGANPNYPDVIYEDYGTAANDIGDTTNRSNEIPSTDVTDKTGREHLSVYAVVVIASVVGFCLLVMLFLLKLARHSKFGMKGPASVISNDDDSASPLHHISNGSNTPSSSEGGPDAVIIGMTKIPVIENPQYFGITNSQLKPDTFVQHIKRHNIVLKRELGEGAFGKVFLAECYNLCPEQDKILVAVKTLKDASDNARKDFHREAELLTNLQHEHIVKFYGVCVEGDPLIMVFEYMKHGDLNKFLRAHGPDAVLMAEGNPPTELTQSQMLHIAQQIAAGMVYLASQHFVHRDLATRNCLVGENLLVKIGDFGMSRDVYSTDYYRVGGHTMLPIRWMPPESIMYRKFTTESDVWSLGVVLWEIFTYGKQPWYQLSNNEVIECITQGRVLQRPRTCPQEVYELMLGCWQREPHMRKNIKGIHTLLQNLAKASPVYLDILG", "assay": "Kinase Profiling Assay", "assay_type": "biochemical", "conditions": "read-out: inhibition of kinase activity of TrkB", "method": "as §2, §3, §4"}, "MAPKAP-K3 (h)": {"biological_target": "MAPKAP-K3 (h) (Homo sapiens, UniProt Q16644)", "sequence (Q16644 whole entry)": "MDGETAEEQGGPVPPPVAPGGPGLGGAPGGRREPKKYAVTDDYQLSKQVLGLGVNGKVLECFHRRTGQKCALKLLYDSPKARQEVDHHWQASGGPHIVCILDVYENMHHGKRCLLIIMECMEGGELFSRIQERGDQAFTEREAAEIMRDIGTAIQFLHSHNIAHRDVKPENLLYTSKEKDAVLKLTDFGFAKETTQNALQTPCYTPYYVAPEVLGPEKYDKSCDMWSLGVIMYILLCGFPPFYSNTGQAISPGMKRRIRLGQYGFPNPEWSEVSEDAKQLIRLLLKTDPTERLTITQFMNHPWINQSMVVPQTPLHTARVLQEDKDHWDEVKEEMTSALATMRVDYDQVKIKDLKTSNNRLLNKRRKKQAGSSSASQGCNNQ", "assay": "Kinase Profiling Assay", "assay_type": "biochemical", "conditions": "read-out: inhibition of kinase activity of MK3", "method": "as §2, §3, §4"}, "p70S6K (h)": {"biological_target": "T1, p70S6K (h) (Homo sapiens, UniProt P23443)", "T1 construct": "purchased Millipore", "T1 sequence (P23443 whole entry)": "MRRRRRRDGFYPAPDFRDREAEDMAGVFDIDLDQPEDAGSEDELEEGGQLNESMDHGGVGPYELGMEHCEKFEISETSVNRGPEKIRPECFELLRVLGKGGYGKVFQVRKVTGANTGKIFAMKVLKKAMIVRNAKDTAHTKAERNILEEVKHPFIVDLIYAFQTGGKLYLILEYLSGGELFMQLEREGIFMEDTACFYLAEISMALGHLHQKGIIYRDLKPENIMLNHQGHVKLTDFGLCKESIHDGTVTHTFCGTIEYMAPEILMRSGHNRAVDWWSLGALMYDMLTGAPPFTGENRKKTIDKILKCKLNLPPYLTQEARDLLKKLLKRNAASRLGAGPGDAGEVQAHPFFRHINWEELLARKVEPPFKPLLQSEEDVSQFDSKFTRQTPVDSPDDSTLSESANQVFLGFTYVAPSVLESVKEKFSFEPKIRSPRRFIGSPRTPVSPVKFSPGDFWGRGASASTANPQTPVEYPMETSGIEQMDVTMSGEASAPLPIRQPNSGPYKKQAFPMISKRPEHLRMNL", "assay": "Kinase Profiling Assay", "assay_type": "biochemical", "method": "as §2, §3, §4"}},
  "note": "“Also recorded” adds a separate entry of the source. Ends that are not written are not given here.",
  "data": [
    {"sequence": "YARAAARQARAKALARQLGVAA [MMI-0100]", "values": [
      {"measurement": "collagen deposition (hydroxyproline assay, whole left lung)", "setting": "[1]; 50 μg/kg/day IP from day 14", "value": "arrests significant collagen deposition; also recorded: significantly arrested further progression of collagen deposition"},
      {"measurement": "collagen deposition (hydroxyproline assay, whole left lung)", "setting": "[1]; 50 μg/kg/day nebulizer from day 14", "value": "arrests significant collagen deposition; also recorded: significantly arrested further progression of collagen deposition"},
      {"measurement": "lung scarring, histology (H&E and Masson's blue trichrome)", "setting": "[1]; intraperitoneal", "value": "ameliorates bleomycin-induced lung fibrosis; also recorded: rescued"},
      {"measurement": "lung scarring, histology (H&E and Masson's blue trichrome)", "setting": "[1]; nebulized", "value": "ameliorates bleomycin-induced lung fibrosis; also recorded: rescued"},
      {"measurement": "plasma level of IL-6", "setting": "IL-6; intraperitoneal", "value": "significantly reduced"},
      {"measurement": "plasma level of IL-6", "setting": "IL-6; nebulized", "value": "significantly reduced"},
      {"measurement": "protein level of α-smooth muscle actin (α-SMA)", "setting": "[2]", "value": "effectively prevented myofibroblast activation"},
      {"measurement": "% activity", "setting": "SGK (h)", "value": 128, "unit": "%"},
      {"measurement": "% activity", "setting": "MLCK (h)", "value": 85, "unit": "%"},
      {"measurement": "protein level of fibronectin (secreted fragments in conditioned media)", "setting": "[3]", "value": "effectively prevented myofibroblast activation"},
      {"measurement": "phospho-Thr^334-MAPKAPK2 staining (activated form of MK2) in lung", "setting": "[4]; 50 μg/kg daily intraperitoneal", "value": "decreased phospho-Thr^334-MAPKAPK2 staining"},
      {"measurement": "phospho-Thr^334-MAPKAPK2 staining (activated form of MK2) in lung", "setting": "[4]; 50 μg/kg daily nebulized", "value": "as effective as conventional systemic injections in attenuating MK2 activation; also recorded: decreased phospho-Thr^334-MAPKAPK2 staining"},
      {"measurement": "toxicity (proliferative response of splenic T cells to α-CD3)", "setting": "splenic T cells; 50 μg/kg/day, day 7 to 21", "value": "no toxicity"},
      {"measurement": "systemic distribution", "setting": "splenic T cells; nebulized, inferred from lack of splenic T cell response", "value": "little systemic distribution"},
      {"measurement": "level of α-SMA in bleomycin-injured lungs", "setting": "[5]; 50 μg/kg/day intraperitoneal", "value": "inhibits myofibroblast alpha-smooth muscle actin (α-SMA) activation; also recorded: significantly attenuated"},
      {"measurement": "level of α-SMA in bleomycin-injured lungs", "setting": "[5]; 50 μg/kg/day nebulizer", "value": "inhibits myofibroblast alpha-smooth muscle actin (α-SMA) activation; also recorded: significantly attenuated"},
      {"measurement": "plasma level of TNF-α", "setting": "TNF-α; intraperitoneal", "value": "significantly reduced"},
      {"measurement": "plasma level of TNF-α", "setting": "TNF-α; nebulized", "value": "significantly reduced"},
      {"measurement": "collagen levels in the lung (Masson's blue trichrome staining), dose response", "setting": "[6]; 25, 50 or 75 μg/kg daily IP, day 7 through day 21", "value": "prevents fibrosis due to bleomycin injury in a dose-dependent manner; also recorded: decrease in collagen levels"},
      {"measurement": "collagen accumulation (Masson's Trichrome staining)", "setting": "[6]; intraperitoneal", "value": "reduced collagen accumulation"},
      {"measurement": "fibrotic loci formation / lung fibrosis (H&E staining)", "setting": "[6]; intraperitoneal", "value": "protects against bleomycin-induced lung fibrosis; also recorded: significantly reduced development of fibrotic loci formation"},
      {"measurement": "collagen accumulation (Masson's Trichrome staining)", "setting": "[6]; nebulization", "value": "reduced collagen accumulation"},
      {"measurement": "fibrotic loci formation / lung fibrosis (H&E staining)", "setting": "[6]; nebulization", "value": "protects against bleomycin-induced lung fibrosis; also recorded: significantly reduced development of fibrotic loci formation"},
      {"measurement": "inhibition at 100 µM", "setting": "MAPKAP-K2 (h)", "value": "> 65", "unit": "%"},
      {"measurement": "inhibition at 100 µM", "setting": "TrkB (h)", "value": "> 65", "unit": "%"},
      {"measurement": "inhibition at 100 µM", "setting": "MAPKAP-K3 (h)", "value": "> 65", "unit": "%"},
      {"measurement": "activity at 100 µM", "setting": "p70S6K (h)", "value": 89, "unit": "%"}
    ]}
  ]
}
